Data as given in patent US7863280B2, “Substituted 2-pyridone derivatives, method for their preparation and their use as medicament” (Sanofi-Aventis Deutschland GmbH, priority 2004, dated 2011).

Target: recombinantly expressed human PARP-1 enzyme (Homo sapiens, UniProt P09874)
Test: PARP enzyme assay
Type: biochemical
Settings: DNA-activated PARP-1, 200 μM NAD, tritium-labeled NAD incorporation, pH=8.0, room temperature, 1 hour
Procedure: Pharmacological Investigations PARP Enzyme Assay
The half-maximum inhibitor concentration is determined by incubating the substances to be tested with the DNA-activated, recombinantly expressed and purified PARP-1 enzyme. Specifically, various concentrations of the test substance are incubated in 50 μl of reaction solution, which contains 50 mM Tris, 5 mM MgCl2, 1 mM DTT, 200 μM NAD, 0.1 mCi/ml tritium-labeled NAD, 0.1 mg/ml DNA, 0.1 mg/ml histones, 2 μg/ml recombinantly expressed human PARP-1 enzyme, pH=8.0, at room temperature for 1 hour. The reaction is stopped by adding 150 μl of 20% trichloroacetic acid, and the radiolabelled protein constituents are precipitated. After incubation on ice for 10 minutes, the labeled, insoluble constituents are separated off through a glass fiber filter and, after washing with 20% trichloroacetic acid three times, the radioactivity incorporated by the PARP-1 enzyme is measured by radioluminescence. Consideration of the incorporation rates determined in this way as a function of the concentration of the test substance results in the half-maximum inhibitor concentration (IC50) as the concentration of the test substance which reduces the incorporation rate to half the maximum value attainable (incubation without inhibitor).

Sequence of recombinantly expressed human PARP-1 enzyme (P09874 whole entry): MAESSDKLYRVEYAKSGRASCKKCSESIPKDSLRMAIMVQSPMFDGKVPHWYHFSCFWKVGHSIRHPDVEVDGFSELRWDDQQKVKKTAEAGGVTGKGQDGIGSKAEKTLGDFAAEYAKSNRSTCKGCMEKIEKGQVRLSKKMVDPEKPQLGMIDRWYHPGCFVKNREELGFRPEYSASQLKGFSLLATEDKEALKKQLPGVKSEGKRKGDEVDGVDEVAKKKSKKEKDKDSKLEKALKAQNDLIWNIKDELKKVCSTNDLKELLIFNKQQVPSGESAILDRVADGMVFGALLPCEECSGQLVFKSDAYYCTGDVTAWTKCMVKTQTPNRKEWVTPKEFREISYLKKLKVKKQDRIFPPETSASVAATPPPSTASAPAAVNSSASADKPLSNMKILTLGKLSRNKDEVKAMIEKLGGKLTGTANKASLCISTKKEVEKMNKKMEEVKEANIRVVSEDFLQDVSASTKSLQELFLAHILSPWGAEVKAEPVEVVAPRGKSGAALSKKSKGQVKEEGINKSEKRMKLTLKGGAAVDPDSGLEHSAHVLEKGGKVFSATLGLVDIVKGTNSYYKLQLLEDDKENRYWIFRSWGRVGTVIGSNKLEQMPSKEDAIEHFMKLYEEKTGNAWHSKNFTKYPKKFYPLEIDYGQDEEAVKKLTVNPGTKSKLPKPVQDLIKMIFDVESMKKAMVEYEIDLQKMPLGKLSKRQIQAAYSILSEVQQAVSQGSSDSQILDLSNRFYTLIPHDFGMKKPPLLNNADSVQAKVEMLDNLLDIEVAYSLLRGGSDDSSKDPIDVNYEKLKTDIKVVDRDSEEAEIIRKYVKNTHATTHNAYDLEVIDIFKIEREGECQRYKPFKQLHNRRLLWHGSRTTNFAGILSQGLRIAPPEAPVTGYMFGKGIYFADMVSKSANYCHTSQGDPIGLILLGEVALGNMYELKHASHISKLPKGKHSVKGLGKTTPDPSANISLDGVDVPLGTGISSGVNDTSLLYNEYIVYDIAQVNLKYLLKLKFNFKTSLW

IC50 [µM] | Structure (SMILES)
9.5 | CCc1cc(Nc2ccncc2)c(C)[nH]c1=O [Example 15, 3-ethyl-6-methyl-5-(pyridin-4-ylamino)-1H-pyridin-2-one]
9 | CCc1cc(Nc2cccc(C#N)c2)c(C)[nH]c1=O [Example 1, 3-(5-ethyl-2-methyl-6-oxo-1,6-dihydropyridin-3-ylamino)benzonitrile]
4.7 | CCc1cc(Nc2ccc(Oc3cccnc3)cc2)c(C)[nH]c1=O [Example 7, 3-ethyl-6-methyl-5-[4-(pyridin-3-yloxy)phenylamino]-1H-pyridin-2-one]
0.8 | CCc1cc(Nc2cccc(NC(C)=O)c2)c(C)[nH]c1=O [Example 4, N-[3-(5-ethyl-2-methyl-6-oxo-1,6-dihydropyridin-3-ylamino)phenyl]acetamide]
3.9 | CCc1cc(Nc2ccc(C#N)cn2)c(C)[nH]c1=O [Example 13, 6-(5-ethyl-2-methyl-6-oxo-1,6-dihydropyridin-3-ylamino)nicotinonitrile]
2.2 | CCc1cc(Nc2cccc(C(N)=O)c2)c(C)[nH]c1=O [Example 2, 3-(5-ethyl-2-methyl-6-oxo-1,6-dihydropyridin-3-ylamino)benzamide]
4.8 | CCc1cc(Oc2cccc(OC)c2)c(C)[nH]c1=O [Example 20, 3-ethyl-5-(3-methoxyphenoxy)-6-methyl-1H-pyridin-2-one]
1.3 | CCc1cc(Nc2cccc(C(C)=O)c2)c(C)[nH]c1=O [Example 3, 5-(3-acetylphenylamino)-3-ethyl-6-methyl-1H-pyridin-2-one]
6.1 | CCc1cc(Nc2cccc(S(C)(=O)=O)c2)c(C)[nH]c1=O [Example 24, 3-ethyl-5-(3-methanesulfonylphenylamino)-6-methyl-1H-pyridin-2-one]
6.2 | CCc1cc(Nc2ccc(S(=O)(=O)Nc3ccccn3)cc2)c(C)[nH]c1=O [Example 10, 4-(5-ethyl-2-methyl-6-oxo-1,6-dihydropyridin-3-ylamino)-N-pyridin-2-yl-benzenesulfonamide]
1.1 | CCc1cc(Nc2ccc(NC(C)=O)cn2)c(C)[nH]c1=O [Example 12, N-[6-(5-ethyl-2-methyl-6-oxo-1,6-dihydropyridin-3-ylamino)pyridin-3-yl]-acetamide]
9.2 | CCc1cc(Nc2cccnc2)c(C)[nH]c1=O [Example 19, 3-ethyl-6-methyl-5-(pyridin-3-ylamino)-1H-pyridin-2-one]
4.4 | CCc1cc(Nc2ccc(C(C)=O)cc2)c(C)[nH]c1=O [Example 18, 5-(4-acetylphenylamino)-3-ethyl-6-methyl-1H-pyridin-2-one]
3.4 | CCc1cc(Nc2ccc3c(c2)N(C(C)=O)CC3)c(C)[nH]c1=O [Example 9, 5-(1-acetyl-2,3-dihydro-1H-indol-6-ylamino)-3-ethyl-6-methyl-1H-pyridin-2-one]
9.8 | CCc1cc(Nc2ccc(S(N)(=O)=O)cc2)c(C)[nH]c1=O [Example 6, 4-(5-ethyl-2-methyl-6-oxo-1,6-dihydropyridin-3-ylamino)benzenesulfonamide]
9.8 | CCc1cc(Nc2cccc(CO)c2)c(C)[nH]c1=O [Example 23, 3-ethyl-5-(3-hydroxymethylphenylamino)-6-methyl-1H-pyridin-2-one]
